Series [1] relates to SW-982 synovial sarcoma cells. Briefly: Anticancer cell cytotoxicity assay. Type of series: cell-based. The conditions noted are these: Homo sapiens, SW982, 24 h, read-out: SW-982 IC50 (μM).
Another series has as its system Jurkat T cells. Description: Anticancer cell cytotoxicity assay. It counts as cell-based. The conditions noted are these: Homo sapiens, 24 h, read-out: Jurkat IC50 (μM).
In series [2] the test system is MCF7 breast adenocarcinoma cells. Description: Anticancer cell cytotoxicity assay. It counts as cell-based. The conditions noted are these: Homo sapiens, MCF7, 24 h, read-out: MCF7 IC50 (μM).
Series [3] relates to A549 lung carcinoma cells. Description: Anticancer cell cytotoxicity assay. Type of series: cell-based. The conditions noted are these: Homo sapiens, A549, 24 h, read-out: A549 IC50 (μM).
Series [4] relates to nine tumor cell lines and primary PBMCs. Description: Cytotoxicity across the panel of nine tumor cell lines and PBMCs. The conditions noted are these: 24 h, up to 50 μM. Type of series: cell-based, human.
For series [5], the system named is THP-1 monocytic leukemia cells. Description: Anticancer cell cytotoxicity assay. The conditions noted are these: Homo sapiens, THP-1, 24 h, read-out: THP-1 IC50 (μM). Type of series: cell-based.
Series [6] deals with T1, human neutrophil elastase (HNE) (Homo sapiens, UniProt P08246).
T1 sequence (P08246 30-247 limits assumed): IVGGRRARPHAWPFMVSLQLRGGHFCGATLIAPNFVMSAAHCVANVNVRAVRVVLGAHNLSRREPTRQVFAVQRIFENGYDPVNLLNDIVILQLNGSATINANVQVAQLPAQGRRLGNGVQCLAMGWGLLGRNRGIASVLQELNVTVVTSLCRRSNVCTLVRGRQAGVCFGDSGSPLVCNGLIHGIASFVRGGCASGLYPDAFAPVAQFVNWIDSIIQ
Description: HNE inhibitory assay. It counts as biochemical.

Series [7] relates to LS174T colorectal adenocarcinoma cells. Description: Anticancer cell cytotoxicity assay. Type of series: cell-based. The note with it: Homo sapiens, 24 h, read-out: LS174T IC50 (μM).
Series [8] has as its system MonoMac6 monocytic leukemia cells. Description: Anticancer cell cytotoxicity assay. It counts as cell-based. The note with it: Homo sapiens, MONO-MAC-6, 24 h, read-out: MonoMac6 IC50 (μM).
In a further series the test system is U936. Briefly: Anticancer cell cytotoxicity assay. It counts as cell-based. The conditions noted are these: Homo sapiens, 24 h, read-out: U936 IC50 (μM).
Another series deals with T2, MKK7 (Homo sapiens, UniProt O14733).
T2 sequence (O14733 1-419): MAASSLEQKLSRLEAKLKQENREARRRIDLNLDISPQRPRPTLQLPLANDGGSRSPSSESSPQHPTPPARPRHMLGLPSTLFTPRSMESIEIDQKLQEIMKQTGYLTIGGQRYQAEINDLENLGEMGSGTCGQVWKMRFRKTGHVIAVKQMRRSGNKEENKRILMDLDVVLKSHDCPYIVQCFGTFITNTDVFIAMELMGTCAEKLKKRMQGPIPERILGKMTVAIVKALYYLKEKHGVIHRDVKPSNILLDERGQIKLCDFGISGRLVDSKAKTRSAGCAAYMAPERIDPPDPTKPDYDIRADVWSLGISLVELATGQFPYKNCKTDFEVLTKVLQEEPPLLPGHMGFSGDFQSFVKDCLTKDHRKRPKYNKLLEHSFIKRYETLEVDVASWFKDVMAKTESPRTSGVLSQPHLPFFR
Briefly: KINOMEscan kinase binding assay. The conditions noted are these: for Kd (μM) vs MKK7: KINOMEscan, duplicate, maximum concentration 30 μM.

In series [9] the test system is HL60 promyelocytic leukemia cells. Briefly: Anticancer cell cytotoxicity assay. Type of series: cell-based. The note with it: Homo sapiens, HL-60, 24 h, read-out: HL60 IC50 (μM).
For series [10], the system named is primary peripheral blood mononuclear cells (PBMCs). Briefly: Cytotoxicity assay. Type of series: cell-based. The conditions noted are these: Homo sapiens, PBMC, 24 h, read-out: PBMCs IC50 (μM).

Regarding `CC(C)=CCC1=C(O)C(=O)c2ccccc2C1=O` [Compound 3, lapachol], the half-maximal inhibitory concentration (IC50) (in series [1]; with Jurkat T cells; in [2]; in series [3]; in [5]; in series [6]) was greater than 50 µM each time. In addition, the IC50 (in series [7]; in [8]; in the series with U936; in series [9]; in [10]) was greater than 50 µM throughout. For the same compound, in [4], the “cytotoxicity toward tumor cell lines and PBMCs (in words)” value is “did not find any toxicity”. The same compound came in with a Kd at MKK7 greater than 30 µM. The “Kd (μM) vs MKK7” value on MKK7 is “did not bind”.

On to `COc1ccc(OC)c2c1C(=O)C=C(SCCC(=O)O)C2=O` [Compound 14, GN25], for which the concentration for half-maximal inhibition (IC50) in series [1], in series [2], in series [3], in [6], in series [7] and in series [10] was greater than 50 µM in each case. Moreover, the “cytotoxicity toward tumor cell lines and PBMCs (in words)” value in [4] is “weakly toxic or nontoxic”. In addition, the Kd on MKK7 was greater than 30 µM. In addition, the “Kd (μM) vs MKK7” value on MKK7 is “inactive”.

On to `COC1=C(C)C(=O)c2ccccc2C1=O` [Compound 17], for which the IC50 in [1], in series [3], in series [6], in [7] and in [10] was greater than 50 µM each time.

Broadly, the IC50 is the point on the concentration scale where inhibition reaches its midpoint. A word on the Kd: it is the equilibrium constant for the complex coming apart.

The values are drawn from PMC6925601 (European journal of medicinal chemistry, 2019).
